Here are results for ten compounds from publication PMC11050599, “Novel Tetracyclic Azaphenothiazines with the Quinoline Ring as New Anticancer and Antibacterial Derivatives of Chlorpromazine” (International Journal of Molecular Sciences, 2024).

For one assay, the system named is S. aureus ATCC 25923. Briefly: MIC broth microdilution. It is filed as cell-based. To be noted: Staphylococcus aureus, ATCC25923; 19 h, 35 °C; read-out: MIC S. aureus ATCC 25923. The source says:
(§1) To evaluate the antibacterial effectiveness of chloroquinobenzothiazine derivatives, various bacterial strains from international microbe collections such as the American Type Culture Collection (ATCC) and the National Collection of Type Culture (NCTC) were examined, alongside a panel of clinical rods. This included two Gram-negative organisms, E. coli ATCC 25922 and P. aeruginosa ATCC 15442, and a series of six Gram-positive strains: S. aureus NCTC 4163; S. aureus ATCC 29213, 25923, and 6538; and S. epidermidis ATCC 12228 and 35984. […] The MIC was determined using the two-fold serial broth microdilution method in 96-well microtitration plates containing Mueller-Hinton II broth medium (Becton Dickinson, Franklin Lakes, NJ, USA). The final inoculum for all tested bacteria was adjusted to […] (colony-forming units per milliliter). The stock solution of the tested compounds was prepared in dimethyl sulfoxide (DMSO) and diluted to a maximum of 1% solvent content with a sterile medium.

The next assay has as its system E. coli ATCC 25922. Briefly: MIC broth microdilution. It is filed as cell-based. The note with it: Escherichia coli, ATCC25922; 19 h, 35 °C; read-out: MIC E. coli ATCC 25922.
Description: as §1

For assay [1], the system named is S. epidermidis ATCC 12228. The experiment in a line: MIC broth microdilution. The note with it: Staphylococcus epidermidis, ATCC12228; 19 h, 35 °C; read-out: MIC S. epidermidis ATCC 12228. It is filed as cell-based.
Description: as §1

Another assay has as its system S. aureus NCTC 4163. Briefly: MIC broth microdilution. The note with it: Staphylococcus aureus, NCTC4163; 19 h, 35 °C; read-out: MIC S. aureus NCTC 4163. It counts as cell-based.
Description: as §1

Another assay relates to S. aureus ATCC 29213. The experiment in a line: MIC broth microdilution. It counts as cell-based. To be noted: Staphylococcus aureus, ATCC29213; 19 h, 35 °C; read-out: MIC S. aureus ATCC 29213.
Description: as §1

The subject of a further assay is S. aureus ATCC 6538. Briefly: MIC broth microdilution. It is filed as cell-based. To be noted: Staphylococcus aureus, ATCC6538; 19 h, 35 °C; read-out: MIC S. aureus ATCC 6538.
Description: as §1

For assay [2], the system named is S. epidermidis ATCC 35984. The experiment in a line: MIC broth microdilution. It counts as cell-based. To be noted: Staphylococcus epidermidis, ATCC35984; 19 h, 35 °C; read-out: MIC S. epidermidis ATCC 35984.
Description: as §1

The next assay relates to P. aeruginosa ATCC 15442. The experiment in a line: MIC broth microdilution. It counts as cell-based. To be noted: Pseudomonas aeruginosa, ATCC15442; 19 h, 35 °C; read-out: MIC P. aeruginosa ATCC 15442.
Description: as §1

Assay [3] concerns MDA-MB-231 (breast cancer). The experiment in a line: MTT assay, MDA-MB-231 cells. It is filed as cell-based, human. To be noted: for IC50: Homo sapiens, MDA-MB-231, MTT, 72 h, MDA-MB231, read-out: IC50 MDA; for SI MDA: SI = IC50 for normal cell line (HaCaT)/IC50 cancer cell line. How it is done: (§2) The human cell lines, such as A549 (lung cancer), MDA-MB-231 (breast cancer), MiaPaca-2 (pancreatic cancer), PC3 (metastatic prostate cancer), HCT-116 (colon carcinoma), and HaCaT (immortalized keratinocytes), were sourced from the American Type Culture Collection (ATCC) in Rockville, USA. Culturing conditions varied as follows: HCT116 cells were cultured in MEM (ThermoSci, Waltham, MA, USA), A549, MDA-MB-231, MiaPaca, HaCaT cells in DMEM High Glucose and PC3 cells were cultured in RPMI (Biowest SAS, Nuaillé, France). The growth medium consisted of 10% fetal bovine serum (FBS, Sigma-Aldrich, St. Louis, MO, USA), 20 mM HEPES (Biowest, Nuaillé, France), and antibiotics (100 U/mL of penicillin and 100 μg/mL of streptomycin) from Gibco, Grand Island, NY, USA. […] These compounds were added to 96-well plates containing study cells (1 × 10^4 cells per well) and incubated for 72 h. […] Cell absorbance results were incorporated into the formula for calculating the relative MTT level (%), enabling the assessment of cell viability following exposure to the test compounds. The cell viability percentage represents the MTT reduction in cells treated with the test compounds compared to the control sample, where only the medium was added to the cells.

Assay [4] concerns HaCaT (immortalized human keratinocytes). The experiment in a line: MTT assay, HaCaT normal cells. It counts as cell-based. The note with it: Homo sapiens, HaCaT; MTT, 72 h, normal cells; read-out: IC50 HaCaT (Table 3). The protocol:
as §2

Another assay deals with A549 (lung cancer). Briefly: MTT assay, A549 cells. It counts as cell-based, human. To be noted: for IC50: Homo sapiens, A549, MTT, 72 h, mean SD, read-out: IC50 A549; for SI A549: SI = IC50 for normal cell line (HaCaT)/IC50 cancer cell line. How it is done:
as §2

Bounds are passed on as bounds.

As for `CC(=O)NCCCCN1c2cc(Cl)ccc2Sc2cc3ccccc3nc21` [Compound 17, N-(4-(8-Chloroquino[3,2-b]benzo[1,4]thiazin-6-yl)butyl)acetamide], the minimum inhibitory concentration (MIC) (in the assay on S. aureus ATCC 25923; with E. coli ATCC 25922; in [1]; in the assay on S. aureus NCTC 4163; in the assay on S. aureus ATCC 29213; with S. aureus ATCC 6538) was > 256 µg/mL in each case. Moreover, the MIC (in [2]; in the assay on P. aeruginosa ATCC 15442) was > 256 µg/mL each time. The figures for the IC50 (in assay [3]; in assay [4]; in the assay on A549 (lung cancer)) were > 100 µM, > 100 µM and 82.3 ± 6.2 µM, respectively. The “SI MDA” value in assay [3] worked out at 1.0. The “SI A549” value with A549 (lung cancer) amounted to 1.2.
Take `CCOC(=O)NCCCN1c2cc(Cl)ccc2Sc2cc3ccccc3nc21` [Compound 18, Ethyl(3-(8-chloroquino[3,2-b]benzo[1,4]thiazin-6-yl)propyl)carbamate]: the MIC (with S. aureus ATCC 25923; in the assay with E. coli ATCC 25922; in assay [1]; in the assay on S. aureus NCTC 4163; in the assay with S. aureus ATCC 29213; in the assay with S. aureus ATCC 6538) was > 256 µg/mL throughout. Moreover, the MIC (in assay [2]; in the assay with P. aeruginosa ATCC 15442) was > 256 µg/mL each time. The values for the IC50 (in assay [3]; in assay [4]; in the assay on A549 (lung cancer)) were > 100 µM, > 100 µM and 86.6 ± 0.8 µM, respectively. Further, the “SI MDA” value in [3] was 1.0. In addition, in the assay with A549 (lung cancer), the “SI A549” value came to 1.1.
As for `CCOC(=O)NCCCCN1c2cc(Cl)ccc2Sc2cc3ccccc3nc21` [Compound 19, Ethyl(4-(8-chloroquino[3,2-b]benzo[1,4]thiazin-6-yl)butyl)carbamate], the MIC (in the assay with S. aureus ATCC 25923; in the assay on E. coli ATCC 25922; in [1]; in the assay on S. aureus NCTC 4163; in the assay with S. aureus ATCC 29213; in the assay on S. aureus ATCC 6538) was > 256 µg/mL in each case. For the same compound, the minimal inhibitory concentration (MIC) (in assay [2]; with P. aeruginosa ATCC 15442) was > 256 µg/mL each time. Besides, the IC50 (in assay [3]; in assay [4]; with A549 (lung cancer)) was > 100 µM in each case. The “SI MDA” value in [3] amounted to 1.0. The “SI A549” value in the assay with A549 (lung cancer) is on record as 1.0.
Consider `CS(=O)(=O)NCCCN1c2cc(Cl)ccc2Sc2cc3ccccc3nc21` [Compound 22, N-(3-(8-Chloroquino[3,2-b]benzo[1,4]thiazin-6-yl)propyl)methanesulfonamide], for which the MIC (in the assay with S. aureus ATCC 25923; in the assay on E. coli ATCC 25922; in [1]; with S. aureus NCTC 4163; in the assay on S. aureus ATCC 29213; with S. aureus ATCC 6538) was > 256 µg/mL each time. The MIC (in assay [2]; in the assay on P. aeruginosa ATCC 15442) was > 256 µg/mL throughout. Further, the IC50 (in assay [3]; in assay [4]; with A549 (lung cancer)) was > 100 µM throughout. Moreover, in [3], the “SI MDA” value was found to be 1.0. Also, the “SI A549” value in the assay on A549 (lung cancer) came to 1.0.
On to `Cc1ccc(S(=O)(=O)NCCCN2c3cc(Cl)ccc3Sc3cc4ccccc4nc32)cc1` [Compound 24, N-(3-(8-Chloroquino[3,2-b]benzo[1,4]thiazin-6-yl)propyl)-4-methylbenzenesulfonamide], for which the MIC (with S. aureus ATCC 25923; in the assay on E. coli ATCC 25922; in assay [1]; with S. aureus NCTC 4163; with S. aureus ATCC 29213; in the assay on S. aureus ATCC 6538) was > 256 µg/mL in each case. In addition, the MIC (in [2]; with P. aeruginosa ATCC 15442) was > 256 µg/mL each time. The IC50 (in assay [3]; in assay [4]; in the assay with A549 (lung cancer)) was > 100 µM throughout. The “SI MDA” value in assay [3] was 1.0. Also, the “SI A549” value with A549 (lung cancer) is 1.0.
On to `C#CCN1c2cc(Cl)ccc2Sc2cc3ccccc3nc21` [Compound 26, 8-chloro-6-propynyquinobenzothiazine], for which the MIC (in the assay on S. aureus ATCC 25923; with E. coli ATCC 25922; in assay [1]; in the assay with S. aureus NCTC 4163; with S. aureus ATCC 29213; in the assay with S. aureus ATCC 6538) was > 256 µg/mL throughout. Moreover, the MIC (in [2]; in the assay with P. aeruginosa ATCC 15442) was > 256 µg/mL each time. Besides, the IC50 in [3] is 95.8 ± 9.2 µM; in assay [4], 71.7 ± 5.7 µM; with A549 (lung cancer) it was > 100 µM. In addition, in assay [3], the “SI MDA” value was found to be 0.7. Also, the “SI A549” value with A549 (lung cancer) is 1.0.
With `FC(F)(F)c1ccc(-n2cc(CN3c4cc(Cl)ccc4Sc4cc5ccccc5nc43)nn2)cc1` [Compound 28, 8-Chloro-6-((1-(4-(trifluoromethyl)phenyl)-1H-1,2,3-triazol-4-yl)methyl)-quino[3,2-b]benzo[1,4]thiazine], the MIC (in the assay on S. aureus ATCC 25923; in the assay with E. coli ATCC 25922; in [1]; in the assay on S. aureus NCTC 4163; with S. aureus ATCC 29213; with S. aureus ATCC 6538) was > 256 µg/mL in each case. Further, the MIC (in assay [2]; in the assay on P. aeruginosa ATCC 15442) was > 256 µg/mL throughout. For the same compound, the IC50 (in assay [3]; in assay [4]; in the assay on A549 (lung cancer)) was > 100 µM each time. Besides, the “SI MDA” value in assay [3] worked out at 1.0. Further, the “SI A549” value with A549 (lung cancer) is reported as 1.0.
Regarding `Fc1ccc(Cn2cc(CN3c4cc(Cl)ccc4Sc4cc5ccccc5nc43)nn2)cc1` [Compound 30, 8-chloro-6-((1-(4-fluorobenzyl)-1H-1,2,3-triazol-4-yl)methyl)-quino[3,2-b]benzo[1,4]thiazine], the MIC (in the assay on S. aureus ATCC 25923; with E. coli ATCC 25922; in assay [1]; with S. aureus NCTC 4163; with S. aureus ATCC 29213; in the assay on S. aureus ATCC 6538) was > 256 µg/mL in each case. The MIC (in assay [2]; in the assay with P. aeruginosa ATCC 15442) was > 256 µg/mL throughout. The IC50 (in [3]; in assay [4]; in the assay on A549 (lung cancer)) was > 100 µM throughout. The “SI MDA” value in assay [3] came out at 1.0. The “SI A549” value in the assay on A549 (lung cancer) is 1.0.
As for `N#Cc1ccc(Cn2cc(CN3c4cc(Cl)ccc4Sc4cc5ccccc5nc43)nn2)cc1` [Compound 32, 4-((4-((8-Chloroquino[3,2-b]benzo[1,4]thiazin-6-yl)methyl)-1H-1,2,3-triazol-1-yl)methyl)benzonitrile], the MIC (with S. aureus ATCC 25923; with E. coli ATCC 25922; in assay [1]; with S. aureus NCTC 4163; in the assay with S. aureus ATCC 29213; in the assay on S. aureus ATCC 6538) was > 256 µg/mL throughout. For the same compound, the MIC (in [2]; with P. aeruginosa ATCC 15442) was > 256 µg/mL throughout. Besides, the IC50 (in assay [3]; in assay [4]; in the assay with A549 (lung cancer)) was > 100 µM throughout. The “SI MDA” value in [3] is 1.0. The “SI A549” value in the assay with A549 (lung cancer) is reported as 1.0.
Turning to `Clc1ccc2c(c1)N(Cc1cn(CSc3ccccc3)nn1)c1nc3ccccc3cc1S2` [Compound 33, 8-Chloro-6-((1-((phenylthio)methyl)-1H-1,2,3-triazol-4-yl)methyl)-quino[3,2-b]benzo[1,4]thiazine], the MIC (in the assay with S. aureus ATCC 25923; with E. coli ATCC 25922; in assay [1]; in the assay on S. aureus NCTC 4163; in the assay with S. aureus ATCC 29213; in the assay on S. aureus ATCC 6538) was > 256 µg/mL each time. In addition, the MIC (in [2]; with P. aeruginosa ATCC 15442) was > 256 µg/mL in each case. Further, the IC50 (in [3]; in assay [4]; in the assay with A549 (lung cancer)) was > 100 µM throughout. Moreover, the “SI MDA” value in assay [3] was 1.0. Also, the “SI A549” value in the assay on A549 (lung cancer) worked out at 1.0.
